The values that follow come from patent US7119217B2, “Tri(alkylcarboxylato)gallium (III) products and pharmaceutical compositions containing them” (Genta Incorporated, priority 2002, dated 2006).

Data set [1] relates to Caco-2 monolayer cells. In words: Caco-2 apical to basolateral (A to B) absorption/transport assay. The note with it: for % Absorbed: Caco-2 monolayer, 37° C., 5% CO2; for % Absorbed / Trsp: apical to basolateral, 2 hours incubation; for Trsp: Caco-2 transport rate; for Ratio (Caco-2 transport ratio): ratio of the transport rate to the transport rate of the reference compound mannitol. For orientation: Caco-2 cells form a polarised layer with tight junctions and transporters.
Excerpt: (§1) Values for Caco-2 transport are also expressed herein as transport ratios that represent the ratio of the transport rate for the proband (e.g. tri(alkylcarboxylato) gallium(III) compound) to the transport rate of a reference compound. Mannitol was the reference compound used in the calculation of the Caco-2 transport ratios discussed herein.
(§2) The evaluation protocol of the apical to basolateral (A to B) absorption of a test article in Caco-2 monolayer cells is known to those of skill in the art as follows.
(§3) Caco-2 cells are plated in individual Transwells® in 24-well tissue culture plates and cultured for 3 days to establish the cultures. After 3 days, the cells are tested for transepithelial electrical resistance (TEER) as a measure of the formation of tight junctions between cells. Only cells with a TEER equal to or greater than about 330 Ω·cm^2 cm^2 are used. The proband or the control article (reference) is applied to the apical side of Caco-2 cells and incubated for 2 hours (37° C., 5% CO2). At t=2 hr, the media in each well are collected and stored until later analysis. Aliquots of the dosing solution are retained for analysis along with the samples.
(§4) For test samples, the analysis is repeated three times while the N value for all the control groups is six. The controls are [^3H]propranolol for fast transport and [^3H]mannitol for slow transport.
(§5) The gallium product proband and dosing solution samples are analyzed by inductive coupled plasma optical emission spectrometry (ICP-OCP) to measure gallium concentration. Any non-gallium test articles and dosing solution samples are analyzed by HPLC. Positive controls are analyzed using scintillation counting.

Test in data set [2]: as above
Excerpt: as §1, §2, §3, §4, §5
The note with it: human, Caco-2.

Regarding “Tri(palmitato) Gallium (III) Product [Example 2]”, in data set [1], the “% Absorbed” value is on record as 72.000%, the Trsp stood at 312.500 nm/s and the “Ratio (Caco-2 transport ratio)” value was 27.7.
In general, Papp A→B refers to the apparent permeability from the apical to the basolateral side of a cell layer. For the compound `OC[C@@H](O)[C@@H](O)[C@H](O)[C@H](O)CO` [Mannitol], the Papp A→B at 2 h in data set [2] turned out to be 1.13 ×10⁻⁶ cm/s. Besides, in data set [1], the “% Absorbed” value is 2.603% and the “Ratio (Caco-2 transport ratio)” value was determined as 1.
In the case of `CC(C)NCC(O)COc1cccc2ccccc12` (stereo not drawn) [Propranalol], in data set [1], the “% Absorbed” value is given as 24.118%, the Trsp is 104.679 nm/s and the “Ratio (Caco-2 transport ratio)” value amounted to 9.3.
In the same order, the values of “Tri(palmitato) Gallium (III) Product [Example 3]” are 31.579%, 137.060 nm/s and 12.1.
In the same order, the values of `Cc1occc(=O)c1[O-].Cc1occc(=O)c1[O-].Cc1occc(=O)c1[O-].[Ga+3]` [Gallium Maltolate] are 24.793%, 107.610 nm/s and 9.5.
As to “Tri(octanoato) Gallium (III) Product [Example 1]”, in data set [1], the “% Absorbed” value turned out to be 9.890%, the Trsp was determined as 42.930 nm/s and the “Ratio (Caco-2 transport ratio)” value is 3.8.
